Results published in PubChem BioAssay AID732 (Emory University Molecular Libraries Screening Center, 2007).
Several values for one entry are separate records, joined by “and”; a condition that tells them apart may be missing. Equal entries are not always repeated. Activity calls are given as the source filed them. The rule behind the calls is not given here.

Each molecule was assayed on in vivo angiogenesis, blood vessel count (assay: reduction of blood vessel formation in vivo – HTS, in vivo study (AID 732;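 note: zebrafish embryos dosed at one day post fertilization; 0% = reference inhibitor and 100% = plate mean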)). Conditions: stronger effect = lower value;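 tested at 30 µM in the well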.

SMILES | vessel count % control
Cc1cccc(C)c1OCC(N)C(C)C (centres undefined) | 112% (inactive)
c1ccc2nc(N3CCNCC3)ccc2c1 | 98% (inactive)
NNC(N)=O | 126% (inactive)
COc1ccccc1N1CCN(CCN(C(=O)c2ccc(I)cc2)c2ccccn2)CC1 | 105% (inactive)
Oc1cc(O)cc(/C=C/c2ccc(O)c(O)c2)c1 | 101% (inactive)
COc1cc2c(cc1OC)-c1cc(=Nc3c(C)cc(C)cc3C)n(C)c(=O)n1CC2 | 58.5% (inactive)
CCCCC/C=C\C/C=C\C/C=C\C/C=C\CCCC(=O)NCC(=O)O | 83.7% (inactive)
C=CCN1CCC2(C)c3cc(O)ccc3CC1[C@@H]2C (some centres undefined) | 89.5% (inactive)
Nn1nnc2ccccc21 | 109% (inactive)
O=c1c(O)c(-c2ccc(O)c(O)c2)oc2cc(O)cc(O)c12 | 115% (inactive)
NC(=O)c1cnccn1 | 76.5% (inactive)
O=C(NCCNCC(O)COc1ccc(O)cc1)N1CCOCC1 (centres undefined) | 89.9% (inactive)
CCN(CC)CC#CCOC(=O)C(O)(c1ccccc1)C1CCCCC1 (centres undefined) | 125% (inactive)
COc1ccc(CCN(C)CCCC(C#N)(c2cc(OC)c(OC)c(OC)c2)C(C)C)cc1OC (centres undefined) | 102% (inactive)
NC(N)=NC(N)=Nc1ccccc1 | 72.6% (inactive)
CCCN(CCC)CCc1cccc2c1CC(=O)N2 | 96.5% (inactive)
O=C(O)c1nn(Cc2ccc(Cl)cc2Cl)c2ccccc12 | 87.2% (inactive)
C[n+]1cc2c3c(ccc2c2ccc4cc5c(cc4c21)OCO5)OCO3 | 0% (inactive)
CCN(CC)CCCC(C)Nc1c2ccc(Cl)cc2nc2ccc(OC)cc12 (centres undefined) | 0% (inactive)
NCCCCCCNS(=O)(=O)c1cccc2c(Cl)cccc12 | 117% (inactive)
C[C@@H]1C(=O)NC2=Nc3cccc(Cl)c3CN21 | 119% (inactive)
NC(N)=N[C@@H](CCC(=O)O)C(=O)O | 99.2% (inactive)
CSC(N)=NCCC[C@H](N)C(=O)O | 107% (inactive)
O=C(O)c1cc(=O)c2c(Cl)cc(Cl)cc2[nH]1 | 113% (inactive)
COc1cc(C(O)CO)ccc1OS(=O)(=O)O (centres undefined) | 93.6% (inactive)

SMILES | vessel count % control
CCCN(CCC)CCc1ccc(O)c(O)c1 | 86.9% (inactive)
CC[C@@H]1C(=O)OC[C@@H]1Cc1cncn1C | 82.3% (inactive) and 90.8% (inactive)
CC(=O)[C@]1(O)Cc2c(O)c3c(c(O)c2[C@@H](O[C@H]2C[C@H](N)[C@H](O)[C@H](C)O2)C1)C(=O)c1ccccc1C3=O | 0% (inactive)
C[C@]12CCC(=O)C=C1CC[C@@H]1[C@@H]2CC[C@]2(C)C(=O)CC[C@@H]12 | 102% (inactive)
Nc1ncnc2c1ncn2[C@@H]1O[C@H](COP(=O)(O)OP(=O)(O)OP(=O)(O)OP(=O)(O)OC[C@@H]2O[C@H](n3cnc4c(N)ncnc43)C(O)[C@@H]2O)[C@H](O)C1O (some centres undefined) | 89.7% (inactive)
Cn1cnc2c(NC3CCCC3)ncnc21 | 95.9% (inactive)
CN(C)CCC=C1c2ccccc2C=Cc2ccccc21 | 82.4% (inactive)
O=C(O)c1cc(=O)c2ccccc2[nH]1 | 97.4% (inactive)
N#C/C(=C\c1ccc(O)c(O)c1)C(=O)NCCc1ccccc1 | 115% (inactive)
Cn1cnc2c(NCc3ccccc3)nc(NCCO)nc21 | 98.8% (inactive)
S=C(S)OC1CC2CC1C1CCCC21 (centres undefined) | 86.8% (inactive)
C[C@]12N[C@H](Cc3ccccc31)c1ccccc12 | 85.8% (inactive)
Cc1cccc(C)c1NC(=O)C[N+](C)(C)C | 87.6% (inactive)
O=c1oc(Cl)c(Cl)c2ccccc12 | 104% (inactive)
COc1cccc2c1[C@@H]1CN(CCCCn3c(=O)[nH]c4c(sc5ncc(-c6ccccc6)nc54)c3=O)C[C@@H]1CO2 | 87.9% (inactive)
COc1cc(CC(C)N)c(OC)cc1I (centres undefined) | 79.5% (inactive)
O=c1[nH]c(=O)n([C@H]2C[C@H](O)[C@@H](CO)O2)cc1Br | 105% (inactive)
NC(=O)C1=CN(C2OC(COP(=O)(O)OP(=O)(O)OC[C@H]3O[C@@H](n4cnc5c(N)ncnc54)C(OP(=O)(O)O)[C@H]3O)C(O)C2O)C=CC1 (some centres undefined) | 101% (inactive)
CCCCCCCCCC[Si](C)(C)CCC(=O)NC(Cc1ccc(C)cc1)c1ccccc1 (centres undefined) | 109% (inactive)
CC12CC3CC(C)(C1)CC(N)(C3)C2 | 128% (inactive)
O=C(Nc1cccc(C(=O)Nc2ccc(S(=O)(=O)O)c3cc(S(=O)(=O)O)cc(S(=O)(=O)O)c23)c1)Nc1cccc(C(=O)Nc2ccc(S(=O)(=O)O)c3cc(S(=O)(=O)O)cc(S(=O)(=O)O)c23)c1 | 88.2% (inactive)
CCN(c1nc(N)c(C(=O)N=C(N)N)nc1Cl)C(C)C | 73.9% (inactive)
Cc1nc(-c2ccc(-c3ccc(C(=O)N4CCc5cc6c(cc54)C4(CCN(C)CC4)CO6)cc3)c(C)c2)no1 | 108% (inactive)
C=CC(N)CCC(=O)O (centres undefined) | 85.7% (inactive)
Cc1nccc2c1[nH]c1ccccc12 | 86.1% (inactive)

SMILES | vessel count % control
CN1CCN(CC(=O)N2c3ccccc3C(=O)Nc3cccnc32)CC1 | 95.1% (inactive)
Cc1cccc(C)c1NC1=NCCCS1 | 114% (inactive)
CCN(CC)CC(=O)Nc1c(C)cccc1C | 73.7% (inactive)
O=C(O)C1CCCN(CCC=C(c2ccccc2)c2ccccc2)C1 (centres undefined) | 88.5% (inactive)
O=C1CCC(N2C(=O)c3ccccc3C2=O)C(=O)N1 (centres undefined) | 108% (inactive)
COC[C@H]1OC(=O)c2coc3c2[C@@]1(C)C1=C(C3=O)C2CCC(=O)[C@@]2(C)C[C@H]1OC(C)=O (some centres undefined) | 0% (inactive)
CC1(NCC(O)COc2cccc3[nH]ccc23)CCC(C(C)(C)NC(=O)CBr)CC1 (centres undefined) | 124% (inactive)
CCCN(CCC)C1Cc2cc(OC)c(OC)cc2C1 | 72.2% (inactive)
C[N+](C)(CCCCCC[N+](C)(C)CCCN1C(=O)c2cccc3cccc(c23)C1=O)CCCN1C(=O)c2cccc3cccc(c23)C1=O | 115% (inactive)
O=C1C=CC(=O)C=C1 | 84.8% (inactive)
CCSC(N)=Nc1ccc(C(F)(F)F)cc1 | 87.5% (inactive)
NCC#Cc1ccccc1 | 107% (inactive)
COc1cc2c(CCNC(C)=O)c[nH]c2cc1Cl | 71.1% (inactive)
Cc1ccc(/C(=C\CN2CCCC2)c2ccccn2)cc1 | 80% (inactive)
NCCCCNCCCN | 122% (inactive)
CC(C)(C(=O)O)c1ccc(C(O)CCCN2CCC(C(O)(c3ccccc3)c3ccccc3)CC2)cc1 (centres undefined) | 116% (inactive)
CS(=O)(=O)Nc1ccc([N+](=O)[O-])cc1Oc1ccccc1 | 80.2% (inactive)
O=C(O)C1=CC(=C(c2ccc(O)c(C(=O)O)c2)c2ccc(O)c(C(=O)O)c2)C=CC1=O | 109% (inactive)
NCCS(=O)(=O)O | 96.7% (inactive)
CC(C)(C=O)Cc1cc(C(C)(C)C)c(O)c(C(C)(C)C)c1 | 98.1% (inactive)
CNCC[C@@H](Oc1ccc(C(F)(F)F)cc1)c1ccccc1 | 113% (inactive)
Oc1cc2c(c(Cl)c1O)CCNCC2c1ccccc1 (centres undefined) | 111% (inactive)
CCCCCCCCCCC/C=C\C(C)(C)/C=C\CCCC(=O)O | 79.5% (inactive)
N=C(N)SCCc1cccc(CCSC(=N)N)c1 | 106% (inactive)
CSC(=N)N | 68.6% (inactive)

SMILES | vessel count % control
CCCCCCCC/C=C\CCCCCCCC(=O)NCCc1ccc(O)c(O)c1 | 115% (inactive)
CC(=O)NNC(=O)N1Cc2ccccc2Oc2ccc(Cl)cc21 | 0% (inactive)
CNCCc1ccc(O)c(O)c1 | 96.5% (inactive)
COc1ccccc1N1CCN(CCCNc2c(C)c(=O)n(C)c(=O)n2C)CC1 | 70.6% (inactive)
N#Cc1cc2nc(O)c(O)nc2cc1[N+](=O)[O-] | 94.9% (inactive)
Clc1ccccc1C(c1ccccc1)(c1ccccc1)n1ccnc1 | 114% (inactive)
CCC(C)N(C)C(=O)c1cc2ccccc2c(-c2ccccc2Cl)n1 (centres undefined) | 102% (inactive)
c1ccc([C@H]2CN3CCSC3=N2)cc1 | 98.4% (inactive)
CCCOC(=O)c1c(-c2ccccc2)nc(CC)c(C(=O)SCC)c1CCC | 98% (inactive)
CC(C)(C)NCC(O)c1cc(O)cc(O)c1 (centres undefined) | 93.9% (inactive)
CCC1(C2=NCCN2)Cc2ccccc2O1 (centres undefined) | 68.5% (inactive)
COc1ccccc1N1CCN(CCN2C(=O)CC3(CCCC3)CC2=O)CC1 | 89.5% (inactive)
CC(CCc1ccc(O)cc1)NCCc1ccc(O)c(O)c1 (centres undefined) | 92.8% (inactive)
NCCc1ccc(S(=O)(=O)F)cc1 | 87.5% (inactive)
CC(=O)CCCCn1c(=O)c2c(ncn2C)n(C)c1=O | 109% (inactive)
CCO/C([O-])=N/c1c[n+](N2CCOCC2)no1 | 100% (inactive)
COc1ccc2c(c1)c(CC(=O)O)c(C)n2Cc1ccc(F)cc1 | 106% (inactive)
CCOC(=O)c1cnc2c(cnn2CC)c1NN=C(C)C | 108% (inactive)
O=C(O)C1CN(CCCP(=O)(O)O)CCN1 (centres undefined) | 119% (inactive)
CC(C)NC[C@H](O)COc1cccc2[nH]ccc12 | 97.6% (inactive) and 70.7% (inactive)
CCN1CCCC1CNC(=O)c1cc(S(N)(=O)=O)ccc1OC (centres undefined) | 112% (inactive)
O=C1c2ccccc2-c2n[nH]c3cccc1c23 | 107% (inactive)
OC[C@H]1O[C@@H](n2cnc3c(Nc4ccccc4)ncnc32)C(O)[C@H]1O (some centres undefined) | 110% (inactive)
CC(=O)Oc1ccccc1C(=O)O | 105% (inactive)
